Tested on: subjects with major depressive disorder (MDD) who were inadequate responders to citalopram
Test: Individual HAMD-17 factor (subscale) scores, exploratory analysis
Type: in vivo, human
Experimental: In more detail, a multi-center double-blind, randomized, placebo-controlled, parallel group, flexible dose titration study of TC-5214 as adjunctive therapy in subjects with major depressive disorder (MDD) who were inadequate responders to citalopram was conducted in centers in the US and India. The study consisted of a screening period, baseline/washout period, open-label phase, double-blind phase, and a follow-up visit. Subject participation in the study could continue for up to 16 weeks of treatment. Following a washout period of up to 28 days for other antidepressants, subjects with MDD and a MADRS total score >/=28 and a Clinical Global Impression-Severity (CGI-S) score >/=4 were enrolled on Day 1 into an open-label citalopram-only phase of the study. This phase lasted 8 weeks, with citalopram (CIT) dose increased from a once-daily dose of 20 mg (Day 1 through Week 4) to 40 mg (Week 4 through Week 8). A total of 579 subjects entered the open-label citalopram phase. At Week 8, subjects who tolerated 40 mg CIT, but whose MADRS score was reduced <50% from baseline and no lower than 17, and CGI-S≧4, were considered inadequate responders. These subjects (n=270) were randomized in a double-blind fashion to receive either placebo or TC-5214-23 as add-on therapy to continued CIT. The double-blind phase of the study also lasted 8 weeks (Week 8 to Week 16). Study drug, TC-5214-23 or placebo, was started at 2 mg daily (1 mg twice per day [BID] dosing), added on to continuing CIT (40 mg PO qd). After 2 weeks of treatment, the dose of TC-5214 could be increased to 4 mg (2 mg BID) or continued unchanged, with up-titration based upon good tolerability and inadequate therapeutic response. After a further 2 weeks, the dose of TC-5214 could be increased again to 8 mg (4 mg BID) if judged appropriate by the investigator, based upon good tolerability and inadequate therapeutic response. At any time during the double-blind phase of the study, placebo or TC-5214-23 could be reduced to the previous dose level following the emergence of unacceptable adverse events (AEs). […] At this follow-up, any signs or symptoms of relapse were evaluated. If a subject was prematurely discontinued from the study between Week 8 and Week 16 for any reason, the investigator was to make every effort to perform all evaluations as per protocol, assuming the subject had reached the end of the double-blind add-on treatment phase. These evaluations were to be made as soon as possible and within 2 weeks of discontinuation. […] There was no meaningful difference in results as a function of age, gender, site, or smoking status. An exploratory analysis assessed the differences in the treatment groups from Week 8 (double-blind baseline) to Week 16 for each individual HAMD-17 factor score.

[1] = ITT population, Week 8 (double-blind baseline) to Week 16

## CNC1(C)C2CCC(C2)C1(C)C (stereo in doubt) [TC-5214, (S)—N,2,3,3-tetramethylnorbornan-2-amine]
[1]
  HAMD-17 item 1 Depression-Mood: Adjusted Mean Change TC-5214—Placebo (SD): −0.69 (0.86)
  HAMD-17 item 1 Depression-Mood: Effect Size: 0.80
  HAMD-17 item 2 Feelings of Guilt: Adjusted Mean Change TC-5214—Placebo (SD): −0.43 (0.72)
  HAMD-17 item 2 Feelings of Guilt: Effect Size: 0.60
  HAMD-17 item 3 Suicide: Adjusted Mean Change TC-5214—Placebo (SD): −0.07 (0.40)
  HAMD-17 item 3 Suicide: Effect Size: 0.18
  HAMD-17 item 4 Early Insomnia: Adjusted Mean Change TC-5214—Placebo (SD): −0.41 (0.64)
  HAMD-17 item 4 Early Insomnia: Effect Size: 0.64
  HAMD-17 item 5 Middle Insomnia: Adjusted Mean Change TC-5214—Placebo (SD): −0.42 (0.64)
  HAMD-17 item 5 Middle Insomnia: Effect Size: 0.66
  HAMD-17 item 6 Late Insomnia: Adjusted Mean Change TC-5214—Placebo (SD): −0.35 (0.63)
  HAMD-17 item 6 Late Insomnia: Effect Size: 0.56
  HAMD-17 item 7 Work and Activities: Adjusted Mean Change TC-5214—Placebo (SD): −0.49 (0.86)
  HAMD-17 item 7 Work and Activities: Effect Size: 0.57
  HAMD-17 item 8 Retardation: Adjusted Mean Change TC-5214—Placebo (SD): −0.31 (0.59)
  HAMD-17 item 8 Retardation: Effect Size: 0.53
  HAMD-17 item 9 Agitation: Adjusted Mean Change TC-5214—Placebo (SD): −0.40 (0.68)
  HAMD-17 item 9 Agitation: Effect Size: 0.59
  HAMD-17 item 10 Psychic Anxiety: Adjusted Mean Change TC-5214—Placebo (SD): −0.59 (0.77)
  HAMD-17 item 10 Psychic Anxiety: Effect Size: 0.77
  HAMD-17 item 11 Somatic Symptoms: Anxiety: Adjusted Mean Change TC-5214—Placebo (SD): −0.41 (0.70)
  HAMD-17 item 11 Somatic Symptoms: Anxiety: Effect Size: 0.59
  HAMD-17 item 12 Somatic Symptoms: GI: Adjusted Mean Change TC-5214—Placebo (SD): −0.23 (0.52)
  HAMD-17 item 12 Somatic Symptoms: GI: Effect Size: 0.44
  HAMD-17 item 13 Somatic Symptoms: General: Adjusted Mean Change TC-5214—Placebo (SD): −0.24 (0.66)
  HAMD-17 item 13 Somatic Symptoms: General: Effect Size: 0.36
  HAMD-17 item 14 Somatic Symptoms: Genital: Adjusted Mean Change TC-5214—Placebo (SD): −0.34 (0.62)
  HAMD-17 item 14 Somatic Symptoms: Genital: Effect Size: 0.55
  HAMD-17 item 15 Hypochondriasis: Adjusted Mean Change TC-5214—Placebo (SD): −0.48 (0.74)
  HAMD-17 item 15 Hypochondriasis: Effect Size: 0.65
  HAMD-17 item 16 Weight Loss: Adjusted Mean Change TC-5214—Placebo (SD): −0.20 (0.53)
  HAMD-17 item 16 Weight Loss: Effect Size: 0.38
  HAMD-17 item 17 Insight: Adjusted Mean Change TC-5214—Placebo (SD): 0.03 (0.31)
  HAMD-17 item 17 Insight: Effect Size: 0.10
ITT, with the exception of the Suicide and Insight subscales, result in words
  each HAMD-17 subscale score change from baseline compared with placebo: statistically significant decreases (improvements)

— patent US20120190752A1, “EXO-S-MECAMYLAMINE METHOD, USE, AND COMPOUND FOR TREATMENT” (Targacept Inc., priority 2009, published 2012)
